These results are taken from patent US20240002229A1, “DEVICE FOR ENHANCING REACTION POTENTIAL OF OXIDIZING AGENTS” (Bis Science LLC, priority 2022, published 2024).

Common to all, as to assay type: cell-based
For one assay, the system named is E. coli. The experiment in a line: Microbial reduction by stored photon enhanced solution versus un-exposed hydrogen peroxide. As to conditions: samples at 4 weeks post exposure to photons; control not exposed.
Assay [1] deals with Staphylococcus epidermidis ATCC 12228. The experiment in a line: Residual effect test on inoculated agar carrier (Table 4). As to the method: The test substance or PEOA was applied to target which consisted of a microbe inoculated agar plate. The application of the PEOA can be by means such as a dropper, fog, mist or spray or any other acceptable means. […] PEOA was applied to inoculated plates at intervals of 1 minute, 5 minutes, 10 minutes, 30 minutes, 1 hour, 12 hours, 24 hours, 2, days, 5 days, and 7 days after radiation exposure. In one test, after 7 days, the PEOA was again subjected to photon emissions from 0.01 nm to 845 nm for the test labeled reactivation. An additional photon and or phonon exposure similar to the initial enhancement by photon and or phonons of 0.01 nm through 845 nm was the reactivation dose of photons.

Another assay concerns microbial counts. The experiment in a line: Independent research lab testing, microbial reduction, 5 minute contact time. To be noted: 1 part per million, 5 minute contact time with the ambient air.

Structures are written as SMILES.

Description for microbial counts: A small micron PEOA antimicrobial dry fog is administered into the ambient air through an existing HVAC system and device at a concentration of less than 1 part per million.

Take `OO` [hydrogen peroxide]: the “microbial (E. coli) reduction” value in the assay with E. coli turned out to be 23.08%.
Take `OO` [Control, hydrogen peroxide]: the CFU/carrier is on record as 6.04E+05 CFU/carrier in assay [1] (Control, time after radiation exposure N/A); 3.00E+05 CFU/carrier in assay [1] (applied to carrier 2 Days after radiation exposure); 4.50E+04 CFU/carrier in assay [1] (applied to carrier 5 Days after radiation exposure); 9.80E+04 CFU/carrier in assay [1] (applied to carrier 7 Days after radiation exposure); 9.20E+04 CFU/carrier in assay [1] (applied to carrier 12 Hours after radiation exposure); 1.33E+05 CFU/carrier in assay [1] (applied to carrier 24 Hours after radiation exposure).
Regarding `OO` [standard hydrogen peroxide, hydrogen peroxide], the microbial reduction result with microbial counts is given as “little or no microbial reduction”.
